Test results published in PMC3827683 (Journal of the American Chemical Society, 2013).
Values belong to the compound of their own block, whether it stands above or below them.

Tests used:
Experiment in all cases: direct UV assay of deamination
Format in all cases: biochemical
Settings in all cases: 20 mM HEPES pH 7.5, 30 °C
Avi5431 [1] = target: T1, Avi5431 (Gillisella ampelina, UniProt B9K107)
T1 sequence (B9K107 1-466): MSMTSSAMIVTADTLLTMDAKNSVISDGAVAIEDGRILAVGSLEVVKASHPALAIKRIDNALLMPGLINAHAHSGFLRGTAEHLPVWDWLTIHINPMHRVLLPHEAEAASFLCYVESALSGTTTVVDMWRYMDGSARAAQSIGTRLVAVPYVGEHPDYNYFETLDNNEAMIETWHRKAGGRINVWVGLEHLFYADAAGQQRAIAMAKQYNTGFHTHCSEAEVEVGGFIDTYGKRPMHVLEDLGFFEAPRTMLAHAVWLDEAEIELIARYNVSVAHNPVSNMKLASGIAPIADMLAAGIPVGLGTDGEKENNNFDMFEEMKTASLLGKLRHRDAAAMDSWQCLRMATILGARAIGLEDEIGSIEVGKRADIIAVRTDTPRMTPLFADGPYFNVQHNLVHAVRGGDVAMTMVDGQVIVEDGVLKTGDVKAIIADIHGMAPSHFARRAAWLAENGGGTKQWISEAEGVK

Tvn0515 = target: T2, Tvn0515 (Thermoplasma volcanium, UniProt Q97BE1)
T2 sequence (Q97BE1 1-418): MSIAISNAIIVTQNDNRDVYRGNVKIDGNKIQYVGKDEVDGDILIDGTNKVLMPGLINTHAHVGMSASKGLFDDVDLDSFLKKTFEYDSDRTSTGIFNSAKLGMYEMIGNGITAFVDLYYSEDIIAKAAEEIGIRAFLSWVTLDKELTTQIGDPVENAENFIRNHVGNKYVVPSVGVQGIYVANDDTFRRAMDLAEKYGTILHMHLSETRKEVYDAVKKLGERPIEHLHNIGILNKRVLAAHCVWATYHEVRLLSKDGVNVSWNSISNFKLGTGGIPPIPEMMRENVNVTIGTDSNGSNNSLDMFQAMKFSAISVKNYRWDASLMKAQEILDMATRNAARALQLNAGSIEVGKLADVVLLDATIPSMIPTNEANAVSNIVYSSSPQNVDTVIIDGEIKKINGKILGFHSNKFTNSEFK

Avi5431 [2] = target: T1, Avi5431; remark: listed apart in the source

Compound: Nc1nc(O)nc2[nH]cnc12 [2-oxoadenine]
direct UV assay of deamination (294 nm) (Avi5431 [1]): Avi5431 deaminated two adenine related compounds, 8-oxoadenine and 2-oxoadenine

Km (Tvn0515): Tvn0515 (sg-11) deaminates only SAH
Compound: Nc1ncnc2c1ncn2[C@@H]1O[C@H](CSCC[C@H](N)C(=O)O)[C@@H](O)[C@H]1O [SAH]

Compound: Nc1ncnc2[nH]c(=O)[nH]c12 [8-oxoadenine]
direct UV assay of deamination (272 nm) (Avi5431 [2]): Avi5431 deaminated two adenine related compounds, 8-oxoadenine and 2-oxoadenine
